Data: ChEMBL document CHEMBL6092147, “Design of inhibitors of SARS-CoV-2 papain-like protease deriving from GRL0617: Structure-activity relationships” (Bioorg Med Chem, 2024)

Molecular target: Replicase polyprotein 1ab (Severe acute respiratory syndrome coronavirus 2, UniProt P0DTD1)
Assay: Inhibition of SARS-CoV-2 Main protease using Dabcyl-KLSAVLQSGFRKM-Edans-NH2 as substrate incubated for 30 mins by FRET based enzymatic assay

Compound: Cc1ccc(OCCN(C)C)cc1C(=O)N[C@H](C)c1cc(-c2cnn(CCN(C)C)c2)cc(-c2cccs2)c1
- IC50: 110 nM

Compound: Cc1ccc(OCCN(C)C)cc1C(=O)N[C@H](C)c1cc(-c2cnn(CC3CCOCC3)c2)cc(-c2ccn(C)n2)c1
- IC50: 80 nM

Compound: Cc1ccc(OCCN(C)C)cc1C(=O)N[C@H](C)c1cc(-c2cnn(CCO)c2)cc(-c2ccc(CN3CCCC3)s2)c1
- IC50: 70 nM

Compound: COCCn1cc(-c2cc(-c3ccn(C)n3)cc([C@@H](C)NC(=O)c3cc(OCCN(C)C)ccc3C)c2)cn1
- IC50: 90 nM

Compound: Cc1ccc(OCCN(C)C)cc1C(=O)N[C@H](C)c1cc(-c2cnn(C)c2)cc(-c2cnn(CC(N)=O)c2)c1
- IC50: 70 nM

Compound: Cc1ccc(OCCN(C)C)cc1C(=O)N[C@H](C)c1cc(-c2cnn(C(F)F)c2)cc(-c2ccn(C)n2)c1
- IC50: 90 nM

Compound: Cc1ccc(OCCN(C)C)cc1C(=O)N[C@H](C)c1cc(-c2cnn(CCO)c2)cc(-c2cnn(C(F)F)c2)c1
- IC50: 90 nM

Compound: Cc1ccc(OCCN(C)C)cc1C(=O)N[C@H](C)c1cc(-c2cnn(C)c2)cc(-c2cnn(CC3CCOCC3)c2)c1
- IC50: 70 nM

Compound: Cc1ccc(OCCN(C)C)cc1C(=O)N[C@H](C)c1cc(-c2cnn(CCN3CCOCC3)c2)cc(-c2cccs2)c1
- IC50: 60 nM

Compound: COCCn1cc(-c2cc(-c3cnn(CCO)c3)cc([C@@H](C)NC(=O)c3cc(OCCN(C)C)ccc3C)c2)cn1
- IC50: 100 nM

Compound: Cc1ccc(OCCN(C)C)cc1C(=O)N[C@H](C)c1cc(-c2cnn(C)c2)cc(-c2cccs2)c1
- IC50: 150 nM

Compound: Cc1ccc(OCCN(C)C)cc1C(=O)N[C@H](C)c1cc(-c2cnn(C(C)C)c2)cc(-c2ccn(C)n2)c1
- IC50: 110 nM

Compound: Cc1ccc(OCCN(C)C)cc1C(=O)N[C@H](C)c1cc(-c2cnn(CC(F)(F)F)c2)cc(-c2cccs2)c1
- IC50: 70 nM

Compound: Cc1ccc(OCCN(C)C)cc1C(=O)N[C@H](C)c1cc(-c2ccc3cnn(C)c3c2)cc(-c2cnn(C)c2)c1
- IC50: 130 nM

Compound: Cc1ccc(OCCN(C)C)cc1C(=O)N[C@H](C)c1cc(-c2ccc(N3CCOCC3)nc2)cc(-c2cnn(C)c2)c1
- IC50: 80 nM

Compound: Cc1ccc(OCCN(C)C)cc1C(=O)N[C@H](C)c1cc(-c2ccc(N3CCOCC3)nc2)cc(-c2cccs2)c1
- IC50: 90 nM

Compound: COCCn1cc(-c2cc(-c3cncs3)cc([C@@H](C)NC(=O)c3cc(OCCN(C)C)ccc3C)c2)cn1
- IC50: 110 nM

Compound: Cc1ccc(OCCN(C)C)cc1C(=O)N[C@H](C)c1cc(-c2cn[nH]c2)cc(-c2cccs2)c1
- IC50: 80 nM

Compound: COCCn1cc(-c2cc(-c3cnn(C(F)F)c3)cc([C@@H](C)NC(=O)c3cc(OCCN(C)C)ccc3C)c2)cn1
- IC50: 110 nM

Compound: COCCn1cc(-c2cc(-c3cccs3)cc([C@@H](C)NC(=O)c3cc(OCCN(C)C)ccc3C)c2)cn1
- IC50: 110 nM

Compound: COCCn1cc(-c2cc(-c3cnn(CC(N)=O)c3)cc([C@@H](C)NC(=O)c3cc(OCCN(C)C)ccc3C)c2)cn1
- IC50: 90 nM

Compound: Cc1ccc(OCCN(C)C)cc1C(=O)N[C@H](C)c1cc(-c2cnn(C)c2)cc(-c2cnn(CCO)c2)c1
- IC50: 90 nM

Compound: Cc1ccc(OCCN(C)C)cc1C(=O)N[C@H](C)c1cc(-c2cnn(CCO)c2)cc(-c2cccs2)c1
- IC50: 110 nM

Compound: Cc1ccc(OCCN(C)C)cc1C(=O)N[C@H](C)c1cc(-c2cnn(CCO)c2)cc(-c2ccnn2C)c1
- IC50: 140 nM

Compound: Cc1ccc(OCCN(C)C)cc1C(=O)N[C@H](C)c1cc(-c2cnn(CCO)c2)cc(-c2cnn(CCN(C)C)c2)c1
- IC50: 140 nM

Compound: Cc1ccc(OCCN(C)C)cc1C(=O)N[C@H](C)c1cc(-c2cnn(CC(N)=O)c2)cc(-c2cccs2)c1
- IC50: 80 nM

Compound: Cc1ccc(OCCN(C)C)cc1C(=O)N[C@H](C)c1cc(-c2cnn(C(C)C)c2)cc(-c2cnn(C(F)F)c2)c1
- IC50: 160 nM

Compound: Cc1ccc(OCCN(C)C)cc1C(=O)N[C@H](C)c1cc(-c2cnn(C(F)F)c2)cc(-c2cnn(C3CC3)c2)c1
- IC50: 90 nM

Compound: Cc1ccc(OCCN(C)C)cc1C(=O)N[C@H](C)c1cc(-c2cnn(C(F)F)c2)cc(-c2cccs2)c1
- IC50: 70 nM

Compound: CC(=O)n1cc(-c2cc(-c3cnn(C)c3)cc([C@@H](C)NC(=O)c3cc(OCCN(C)C)ccc3C)c2)cn1
- IC50: 110 nM

Compound: Cc1ccc(OCCN(C)C)cc1C(=O)N[C@H](C)c1cc(-c2cnn(C)c2)cc(-c2ccc(CN3CCOCC3)o2)c1
- IC50: 120 nM
